For this assay, the target named is T1, Human recombinant PTP-1B (Homo sapiens, UniProt P18031).
T1 construct: Human recombinant PTP-1B, containing amino acids 1-321, fused to GST enzyme; GST (glutathione S-transferase)
T1 sequence (P18031 1-321): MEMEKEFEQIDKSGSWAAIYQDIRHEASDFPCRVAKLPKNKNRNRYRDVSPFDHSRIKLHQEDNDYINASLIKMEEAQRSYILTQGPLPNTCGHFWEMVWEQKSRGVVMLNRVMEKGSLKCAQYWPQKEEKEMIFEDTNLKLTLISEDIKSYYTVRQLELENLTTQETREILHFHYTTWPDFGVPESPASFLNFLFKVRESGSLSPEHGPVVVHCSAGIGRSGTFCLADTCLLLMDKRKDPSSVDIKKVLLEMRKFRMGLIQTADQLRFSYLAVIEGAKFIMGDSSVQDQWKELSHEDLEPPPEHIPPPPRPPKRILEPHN
Nature of the assay: Assay for PTP-1B Activity (pNPP substrate). The note with it: human recombinant PTP-1B (1-321) GST fusion, 2 mM pNPP, pH 7.4, 30° C., 20 min; read-out: Activity Code (IC50 range). Format: biochemical. A digest of the protocol: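 GST-fused human PTP-1B (aa 1-321) hydrolysed 2 mM pNPP in 50 mM HEPES pH 7.4, 100 mM NaCl, 2 mM EDTA, 3 mM DTT for 20 min at 30 °C, after a 2 min compound premix. K2CO3 stopped the reaction, with pNP read at 405 nm. Initial rate was plotted against inhibitor concentration.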

As usually defined, the IC50 is the concentration that gives 50% inhibition.

`O=C(O)c1cccc(-c2cn(C3CC3)c(=O)n2Cc2ccc(C(F)(F)P(=O)(O)O)c(Br)c2)c1` [Compound 63, 3-{3-[3-Bromo-4-(difluoro-phosphono-methyl)-benzyl]-1-cyclopropyl-2-oxo-2,3-dihydro-1H-imidazol-4-yl}-benzoic acid]: the IC50 fell in the range of 250 to 2500 nM. As for `CCCn1cc(-c2ccc(C(=O)OC)cc2)n(Cc2ccc(C(F)(F)P(=O)(O)O)c(Br)c2)c1=O` [Compound 48, 4-{3-[3-Bromo-4-(difluoro-phosphono-methyl)-benzyl]-2-oxo-1-propyl-2,3-dihydro-1H-imidazol-4-yl}-benzoic acid methyl ester], the IC50 lay in the range of 100 to 249 nM.

For the compound `COC(=O)c1ccc(-c2cn(C)c(=O)n2Cc2ccc(C(F)(F)P(=O)(O)O)c(Br)c2)cc1` [Compound 38, 4-{3-[3-Bromo-4-(difluoro-phosphono-methyl)-benzyl]-1-methyl-2-oxo-2,3-dihydro-1H-imidazol-4-yl}-benzoic acid methyl ester], the IC50 fell in the range of 250 to 2500 nM. With `CS(=O)(=O)c1ccc(-c2cn(C3CC3)c(=O)n2Cc2ccc(C(F)(F)P(=O)(O)O)c(Br)c2)cc1` [Compound 21, ({2-Bromo-4-[3-cyclopropyl-5-(4-methanesulfonyl-phenyl)-2-oxo-2,3-dihydro-imidazol-1-ylmethyl]-phenyl}-difluoro-methyl)-phosphonic acid], the IC50 fell in the range of 100 to 249 nM. For `COC(=O)/C=C/c1ccc(-c2cn(C3CC3)c(=O)n2Cc2ccc(C(F)(F)P(=O)(O)O)c(Br)c2)cc1` [Compound 45, 3-(4-{3-[3-Bromo-4-(difluoro-phosphono-methyl)-benzyl]-1-cyclopropyl-2-oxo-2,3-dihydro-1H-imidazol-4-yl}-phenyl)-acrylic acid methyl ester], the 50% inhibitory concentration (IC50) was less than 99 nM. `Cn1cc(-c2ccc(S(C)(=O)=O)cc2)n(Cc2ccc(C(F)(F)P(=O)(O)O)c(Br)c2)c1=O` [Compound 4, ({2-Bromo-4-[5-(4-methanesulfonyl-phenyl)-3-methyl-2-oxo-2,3-dihydro-imidazol-1-ylmethyl]-phenyl}-difluoro-methyl)-phosphonic acid]: the concentration for half-maximal inhibition (IC50) lay in the range of 100 to 249 nM. Regarding `O=c1n(Cc2ccc(C(F)(F)P(=O)(O)O)c(Br)c2)ccn1-c1ccccc1` [Compound 43, {[2-Bromo-4-(2-oxo-3-phenyl-2,3-dihydro-imidazol-1-ylmethyl)-phenyl]-difluoro-methyl}-phosphonic acid], the IC50 was in the range of 2500 to 25000 nM.

As for `O=C(O)c1ccc(-c2cn(Cc3ccccc3)c(=O)n2Cc2ccc(C(F)(F)P(=O)(O)O)c(Br)c2)cc1` [Compound 2, 4-{1-Benzyl-3-[3-bromo-4-(difluoro-phosphono-methyl)-benzyl]-2-oxo-2,3-dihydro-1H-imidazol-4-yl}-benzoic acid], the IC50 fell in the range of 250 to 2500 nM.

Regarding `CC(C)(C)C(=O)OCOC(=O)COc1ccc(-c2cn(C3CC3)c(=O)n2Cc2ccc(C(F)(F)P(=O)(O)OCOC(=O)C(C)(C)C)c(Br)c2)cc1` [Compound 77, 2,2-Dimethyl-propionic acid 2-{4-[3-(3-bromo-4-{[(2,2-dimethyl-propionyloxy-methoxy)-hydroxy-phosphoryl]-difluoro-methyl}-benzyl)-1-cyclopropyl-2-oxo-2,3-dihydro-1H-imidazol-4-yl]-phenoxy}-acetoxymethyl ester], the IC50 was in the range of 250 to 2500 nM.

Consider `O=c1n(Cc2ccccc2)cc(-c2ccc3c(c2)CCCC3)n1Cc1ccc(C(F)(F)P(=O)(O)O)c(Br)c1` [Compound 49, ({4-[3-Benzyl-2-oxo-5-(5,6,7,8-tetrahydro-naphthalen-2-yl)-2,3-dihydro-imidazol-1-ylmethyl]-2-bromo-phenyl}-difluoro-methyl)-phosphonic acid], for which the IC50 is 250 to 2500 nM. Take `COC(=O)COc1ccc(-c2cn(C3CC3)c(=O)n2Cc2ccc(C(F)(F)P(=O)(O)O)c(Br)c2)cc1` [Compound 51, (4-{3-[3-Bromo-4-(difluoro-phosphono-methyl)-benzyl]-1-cyclopropyl-2-oxo-2,3-dihydro-1H-imidazol-4-yl}-phenoxy)-acetic acid methyl ester]: the IC50 was 100 to 249 nM.

For the origin of these results see patent publication US20080070867A1, “2-Imidazolone and 2-Imidazolidinone Heterocyclic Inhibitors of Tyrosine Phosphatases” (Metabasis Therapeutics, Inc., priority 2005, published 2008).
